US8637463B2, “Peptide inhibiting angiotensin converting enzyme” (Meiji Dairies Corporation, priority 2003, dated 2014)
Where a SMILES comes first, the peptide text is derived from it. Where no end group is shown, it is not given here.

What was measured:
[1] = target: Angiotensin Converting Enzyme (Homo sapiens, UniProt P12821); assay: ACE inhibitory activity with Hippuryl-His-Leu substrate, absorbance at 228 nm; format: biochemical
Method: Each of the peptides of SEQ ID NOs:1 to 7 was synthesized using an automatic peptide synthesizer. It was confirmed by reverse phase HPLC that the purity of each of the thus obtained peptides is 95%. Each of these synthetic peptides was dissolved in 0.1 M borate buffer (pH 8.3). Subsequently, 0.1 ml of an enzyme solution (Angiotensin Converting Enzyme: 2 units/ml) and 0.04 ml of each of the sample solutions were mixed therewith, followed by heating to 37° C. A 0.1 ml portion of a substrate solution (Hippuryl-His-Leu; N-Benzoyl-Gly-His-Leu) was added thereto, followed by thorough stirring. After allowing the mixture to react at 37° C. for 60 minutes, the reaction was stopped by adding 0.13 ml of 1 N hydrochloric acid. Then, 0.85 ml of ethyl acetate was added thereto, followed by shaking for 1 minute, and then the mixture was centrifuged at 3,000 rpm for 10 minutes. A 0.7 ml portion of the supernatant was recovered, and the solvent was removed using a centrifugal evaporator (about 30 minutes). The residual matters were dissolved by adding 0.5 ml of distilled water, and the absorbance at a wavelength of 228 nm was measured.
The activity of inhibiting ACE (%) was calculated by the following mathematical expression 1. Activity of inhibiting ACE(%)={(A−B)−(C−D)}/(A−B)×100 Mathematical expression 1
In this connection, A in the expression is absorbance of the control when the enzyme is used, B is the absorbance of the control when the enzyme is not used, C is absorbance of the sample when the enzyme is used, and D is absorbance of the sample when the enzyme is not used. In addition, 0.1 M borate buffer was used in the control instead of the sample solution.
Based on the thus obtained ACE inhibitory activities, IC50 of each peptide was calculated.
ACE inhibitory activities (%) of the 4 peptides, Leu-Met-Ala-Pro (SEQ ID NO:4), Arg-Met-Ala-Pro (SEQ ID NO:5), Met-Ala-Pro-Pro (SEQ ID NO:6) and Arg-Met-Ala-Pro-Pro (SEQ ID NO:7), which have Met-Ala-Pro as a partial structure, were obtained by the same method of Example 2, and their IC50's were calculated.

[2] = target: ACE (Homo sapiens, UniProt P12821); details: known ACE-inhibiting peptides from casein and corn protein α-zein; cited from earlier work
Sequence of ACE (P12821 30-1306, species assumed): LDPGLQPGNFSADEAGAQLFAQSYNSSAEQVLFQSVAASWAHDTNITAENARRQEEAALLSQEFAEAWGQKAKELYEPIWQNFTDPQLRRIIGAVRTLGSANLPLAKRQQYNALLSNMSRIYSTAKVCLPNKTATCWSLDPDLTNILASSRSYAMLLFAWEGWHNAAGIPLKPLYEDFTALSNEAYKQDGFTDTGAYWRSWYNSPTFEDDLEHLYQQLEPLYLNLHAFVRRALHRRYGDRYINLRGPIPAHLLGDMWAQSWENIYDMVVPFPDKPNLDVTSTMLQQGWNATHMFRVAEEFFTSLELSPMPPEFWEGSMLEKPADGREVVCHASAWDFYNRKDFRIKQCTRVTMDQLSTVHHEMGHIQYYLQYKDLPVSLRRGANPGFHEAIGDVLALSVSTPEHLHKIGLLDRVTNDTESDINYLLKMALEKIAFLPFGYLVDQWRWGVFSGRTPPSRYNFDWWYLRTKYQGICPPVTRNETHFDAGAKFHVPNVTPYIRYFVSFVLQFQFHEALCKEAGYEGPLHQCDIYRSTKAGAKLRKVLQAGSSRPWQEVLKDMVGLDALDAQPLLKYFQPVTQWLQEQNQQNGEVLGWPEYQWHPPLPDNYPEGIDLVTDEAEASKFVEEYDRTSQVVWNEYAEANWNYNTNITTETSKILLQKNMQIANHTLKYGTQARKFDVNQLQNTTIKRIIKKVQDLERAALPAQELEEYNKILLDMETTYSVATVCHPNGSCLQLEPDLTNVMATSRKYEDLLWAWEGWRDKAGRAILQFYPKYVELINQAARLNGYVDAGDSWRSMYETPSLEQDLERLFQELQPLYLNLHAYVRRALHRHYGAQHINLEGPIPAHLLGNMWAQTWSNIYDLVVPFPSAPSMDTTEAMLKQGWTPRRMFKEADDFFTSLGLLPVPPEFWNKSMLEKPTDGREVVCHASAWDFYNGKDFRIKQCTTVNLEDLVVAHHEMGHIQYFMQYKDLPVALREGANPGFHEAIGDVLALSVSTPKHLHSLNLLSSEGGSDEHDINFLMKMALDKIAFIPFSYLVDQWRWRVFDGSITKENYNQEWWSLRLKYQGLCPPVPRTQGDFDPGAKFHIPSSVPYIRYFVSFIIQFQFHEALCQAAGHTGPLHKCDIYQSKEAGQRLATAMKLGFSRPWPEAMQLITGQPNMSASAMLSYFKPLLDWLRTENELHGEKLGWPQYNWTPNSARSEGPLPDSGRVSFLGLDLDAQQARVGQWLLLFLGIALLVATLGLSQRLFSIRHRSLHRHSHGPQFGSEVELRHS

[3] = peptides having Met-Ala-Pro as a partial structure, same method as Example 2, Table 2
[4] = synthetic peptide, 0.1 M borate buffer pH 8.3, 37° C., 60 minutes, Table 1

Sequence of Angiotensin Converting Enzyme (P12821 30-1306, species assumed): as above

IC50 [1, 3]	Compound	IC50 [2]	further results
27.9 µM	CSCC[C@H](NC(=O)[C@@H](N)CC(C)C)C(=O)N[C@@H](C)C(=O)N1CCC[C@H]1C(=O)O [Leu-Met-Ala-Pro] (H-LMAP-OH; N-terminus and C-terminus assumed)		
28.3 µM	CSCC[C@H](N)C(=O)N[C@@H](C)C(=O)N1CCC[C@H]1C(=O)N1CCC[C@H]1C(=O)O [Met-Ala-Pro-Pro] (H-MAPP-OH; N-terminus and C-terminus assumed)		
255 µM	RMAPP [Arg-Met-Ala-Pro-Pro]		
24 µM	CSCC[C@H](NC(=O)[C@@H](N)CCCNC(=N)N)C(=O)N[C@@H](C)C(=O)N1CCC[C@H]1C(=O)O [Arg-Met-Ala-Pro] (H-RMAP-OH; N-terminus and C-terminus assumed)		

More lines, now with the values behind:

Compound	IC50 [1, 3]	IC50 [2]	further results
CC[C@H](C)[C@H](N)C(=O)N[C@@H](Cc1c[nH]cn1)C(=O)N[C@@H](C)C(=O)O [Ile-His-Ala] (H-Ile-His-Ala-OH; N-terminus and C-terminus assumed)			IC50 [1, 4]: 394 µM
Ile-Pro-Pro [IPP, casein-derived peptide]		5 µM	
CC[C@H](C)[C@H](N)C(=O)N[C@@H](CCC(N)=O)C(=O)N[C@@H](C)C(=O)O [Ile-Gln-Ala] (H-Ile-Gln-Ala-OH; N-terminus and C-terminus assumed)			IC50 [1, 4]: 64.1 µM
Val-Pro-Pro [VPP]		9 µM	
Leu-Gln-Pro [LQP, corn protein α-zein-derived peptide]		2 µM	
Val-Ala-Pro [VAP, casein-derived peptide]		2 µM	
